The results in this text go back to US9737542B2, “Pyrrolotriazine kinase inhibitors” (BRISTOL-MYERS SQUIBB COMPANY, priority 2013, dated 2017).

Test [1] relates to mice (pain response, formalin paw test). Put plainly: formalin paw test. To be noted: % response relative to gabapentin 200 mg/kg. Format: in vivo, mouse. The procedure: AAK1 homozygous (−/−) and their wild-type (+/+) littermates were tested using the formalin paw test in order to assess their acute and tonic nociceptive responses. For these tests, Automatic Nociception Analyzers (purchased from the Ozaki lab at University of California, San Diego) were used. A metal band was placed around the left hind paw of each mouse 30 minutes prior to testing. After the 30-minute acclimation period, 20 μl of 5% formalin is subcutaneously injected in the dorsal surface of the left hind paw. Mice were individually housed in cylindrical chambers for 45 minutes. Fresh 5% formalin solution was prepared by diluting formaldehyde (Formalde-fresh 20%, Fisher Scientific, Fair Lawn, N.J.) with distilled water. Investigatory compounds were administered 30 minutes prior to formalin injection.
A computer recorded flinches per minute, total flinches for phase I (acute phase=first 8 minutes), and total flinches for phase II (tonic phase=time between minutes 20-40 or 10-60 minutes for drug studies) through an electromagnetic field. See Yaksh T L, Ozaki G, McCumber D, Rathbun M, Svensson C, Malkmus S, Yaksh M C. An automated flinch detecting system for use in the formalin nociceptive bioassay. J Appl Physiol., 2001; 90:2386-402.
The same test was used to confirm that the administration of an AAK1 inhibitor can also affect pain response. […]

The next test addresses GST-Xa-hAAK1 (Homo sapiens (Human), UniProt Q2M2I8). Nature of the test: AAK1 Kinase Assay. It counts as biochemical. To be noted: ATP 22 μM; 3 hours at room temperature.

Broadly, the IC50 is the concentration needed to halve the response being measured. High values mean weaker potency, low ones greater potency.

Chain of GST-Xa-hAAK1 (Q2M2I8 whole entry): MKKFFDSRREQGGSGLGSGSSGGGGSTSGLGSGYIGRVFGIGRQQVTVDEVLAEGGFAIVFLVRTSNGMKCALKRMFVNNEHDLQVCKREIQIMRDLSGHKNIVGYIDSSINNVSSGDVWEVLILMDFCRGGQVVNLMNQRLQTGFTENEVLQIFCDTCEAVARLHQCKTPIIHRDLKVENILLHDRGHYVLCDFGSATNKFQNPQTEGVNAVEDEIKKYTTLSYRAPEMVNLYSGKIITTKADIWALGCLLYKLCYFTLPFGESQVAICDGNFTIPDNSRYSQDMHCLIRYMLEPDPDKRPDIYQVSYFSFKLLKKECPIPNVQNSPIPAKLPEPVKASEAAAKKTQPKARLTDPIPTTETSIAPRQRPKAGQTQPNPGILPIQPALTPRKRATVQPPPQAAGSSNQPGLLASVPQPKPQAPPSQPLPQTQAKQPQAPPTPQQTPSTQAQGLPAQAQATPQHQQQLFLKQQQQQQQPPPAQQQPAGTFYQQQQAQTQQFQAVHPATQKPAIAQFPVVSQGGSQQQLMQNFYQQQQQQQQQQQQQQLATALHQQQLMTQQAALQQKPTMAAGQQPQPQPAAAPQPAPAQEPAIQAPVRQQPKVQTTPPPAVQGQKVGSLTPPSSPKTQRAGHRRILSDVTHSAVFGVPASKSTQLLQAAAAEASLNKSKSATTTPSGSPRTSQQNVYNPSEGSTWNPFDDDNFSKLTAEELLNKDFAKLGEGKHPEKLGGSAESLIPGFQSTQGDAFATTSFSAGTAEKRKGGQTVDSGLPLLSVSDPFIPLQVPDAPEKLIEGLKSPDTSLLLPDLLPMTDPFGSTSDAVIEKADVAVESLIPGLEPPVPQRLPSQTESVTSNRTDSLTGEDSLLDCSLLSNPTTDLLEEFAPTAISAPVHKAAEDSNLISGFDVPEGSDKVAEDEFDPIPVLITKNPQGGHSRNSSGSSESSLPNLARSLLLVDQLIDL
Experimental for GST-Xa-hAAK1: The assays were performed in U-bottom 384-well plates. […] The reactions were initiated by the combination of bacterially expressed, GST-Xa-hAAK1 with substrates and test compounds. The reactions were incubated at room temperature for 3 hours and terminated by adding 60 μl of 35 mM EDTA buffer to each sample. The reactions were analyzed on the Caliper LabChip 3000 (Caliper, Hopkinton, Mass.) by electrophoretic separation of the fluorescent substrate and phosphorylated product. Inhibition data were calculated by comparison to EDTA quenched control reactions for 100% inhibition and vehicle-only reactions for 0% inhibition. […] Dose response curves were generated to determine the concentration required inhibiting 50% of kinase activity (IC50). Compounds were dissolved at 10 mM in dimethylsulfoxide (DMSO) and evaluated at eleven concentrations. IC50 values were derived by non-linear regression analysis.

With `CC(C)c1nc(-c2cccc(NC(=O)c3cnc4ccc(NC5CCC(N)CC5)nn34)c2)no1` [6-(((1R,4R)-4-aminocyclohexyl)amino)-N-(3-(5-isopropyl-1,2,4-oxadiazol-3-yl)phenyl)imidazo[1,2-b]pyridazine-3-carboxamide], the Response in test [1] (60 mg/kg sc) was 59%.

In turn, `CCNC(=O)c1ccn2ncnc(Nc3cccc(-c4nnn(C(C)C)n4)c3)c12` [Example 104, N-ethyl-4-((3-(2-isopropyl-2H-tetrazol-5-yl)phenyl)amino)pyrrolo[2,1-f][1,2,4]triazine-5-carboxamide] had an IC50 against GST-Xa-hAAK1 of 195 nM. The same measure, in the same setting: the result for `CC(C)n1nnc(-c2cccc(Nc3ncnn4ccc(C(=O)NCC5CC5)c34)c2)n1` [Example 105, N-(cyclopropylmethyl)-4-((3-(2-isopropyl-2H-tetrazol-5-yl)phenyl)amino)pyrrolo[2,1-f][1,2,4]triazine-5-carboxamide] reads 785 nM. Turning to `CC(C)NC(=O)c1ccn2ncnc(Nc3cccc(-c4nnn(C(C)C)n4)c3)c12` [Example 106, N-isopropyl-4-((3-(2-isopropyl-2H-tetrazol-5-yl)phenyl)amino)pyrrolo[2,1-f][1,2,4]triazine-5-carboxamide], on GST-Xa-hAAK1, the IC50 came to 2350 nM.

For the molecule `CC(C)n1nnc(-c2cccc(Nc3ncnn4ccc(C(=O)NCC#N)c34)c2)n1` [Example 107, N-(cyanomethyl)-4-((3-(2-isopropyl-2H-tetrazol-5-yl)phenyl)amino)pyrrolo[2,1-f][1,2,4]triazine-5-carboxamide], the IC50 at GST-Xa-hAAK1 stood at 469 nM. On GST-Xa-hAAK1, `COCCNC(=O)c1ccn2ncnc(Nc3cccc(-c4nnn(C(C)C)n4)c3)c12` [Example 108, 4-((3-(2-isopropyl-2H-tetrazol-5-yl)phenyl)amino)-N-(2-methoxyethyl)pyrrolo[2,1-f][1,2,4]triazine-5-carboxamide] yielded an IC50 of 289 nM. `CC(C)n1nnc(-c2cccc(Nc3ncnn4ccc(C(=O)N5CCC(N)CC5)c34)c2)n1` [Example 109, (4-aminopiperidin-1-yl)(4-((3-(2-isopropyl-2H-tetrazol-5-yl)phenyl)amino)pyrrolo[2,1-f][1,2,4]triazin-5-yl)methanone] displayed an IC50 at GST-Xa-hAAK1 of 4770 nM. Take `CC(C)C[C@@H](N)C(=O)Nc1cccc(Nc2ncnn3ccc(C(=O)N4CCC(N)CC4)c23)c1` [Example 110, (R)-2-amino-N-(3-((5-(4-aminopiperidine-1-carbonyl)pyrrolo[2,1-f][1,2,4]triazin-4-yl)amino)phenyl)-4-methylpentanamide]: the IC50 against GST-Xa-hAAK1 was 7710 nM. On the same count and under the same terms, then `COC(=O)c1cn2ncnc(Nc3cccc(-c4nnn(C(C)C)n4)c3)c2c1CN1CCC(N)CC1` [Example 111, methyl 5-((4-aminopiperidin-1-yl)methyl)-4-((3-(2-isopropyl-2H-tetrazol-5-yl)phenyl)amino)pyrrolo[2,1-f][1,2,4]triazine-6-carboxylate], with 16 nM. As for `NCC1(CC(=O)O)CCCCC1` [Gabapentin, reference compound], the Response in test [1] (200 mg/kg sc) worked out at 73%.
